From the OPERA property sets (Mansouri et al. 2018)

SMILES	melting point	boiling point	further results
CCC(C(=O)O)c1ccc(CC(C)C)cc1 (configuration not stated)	52 °C		
CCCCCCCC/C=C\CCCCCCCCN	246 °C		
Oc1ccc(Br)c2cccnc12	124 °C		
O=C(CCl)OC(=O)CCl	46 °C	203 °C	log10 vapour pressure (mmHg): -1.43
CC(Cl)C(Cl)(Cl)Cl (configuration not stated)	-64 °C	152 °C	
CCc1ccccc1	-94.9 °C	136 °C	log10 Henry constant (atm·m³/mol): -2.1; log10 Koa: 3.74; log10 Koc (L/kg): 2.23; log10 biodegradation half-life (days): 0.903; log10 vapour pressure (mmHg): 0.982
c1ccc(CN2CCCCC2)cc1		245 °C	
NCC1CCCC(CN)C1 (configuration not stated)		220 °C	ready biodegradability: not readily biodegradable
CCN(CC)CC(O)CN (configuration not stated)		223 °C	
CC(=O)NCC(=O)O	206 °C		
CCCCCC(CO)CCC (configuration not stated)		218 °C	
O=C(O)COc1ccc(Cl)cc1CO	141 °C		log10 vapour pressure (mmHg): -6.18
O[C@H](CCl)[C@H](O)CCl	126 °C		
CC12CCC(C(Br)C1=O)C2(C)C (configuration not stated)	76.5 °C	274 °C	
CON=C(Cc1cccnc1)c1ccc(Cl)cc1Cl			log10 vapour pressure (mmHg): -4.89
CP(=O)(O)CCC(N)C(=O)O (configuration not stated)			log10 Koc (L/kg): 2.63; ready biodegradability: readily biodegradable
CC(C(N)=O)n1nc2ccccc2n1 (configuration not stated)	170 °C		
CC1=Nc2ccc(Cl)cc2S(=O)(=O)N1	330 °C		
CCCCCCCCCCCCCCCCCC(=O)NCCNC(=O)CCCCCCCCCCCCCCCCC			ready biodegradability: not readily biodegradable
Clc1ncccn1	67 °C		
C=C1C(=O)O[C@@H]2[C@H]1CC[C@H](C)[C@]1(O)C=CC(=O)[C@@]21C	164 °C		
CC1CCCCS1 (configuration not stated)	-58 °C	153 °C	
Cc1ccc2ccccc2c1	34.4 °C	241 °C	log10 Henry constant (atm·m³/mol): -3.29; log10 Koc (L/kg): 3.6; log10 biodegradation half-life (days): 1.15; log10 vapour pressure (mmHg): -1.26; log10 BCF (fish): 1.87; log10 biotransformation half-life (days) (fish): 0.88
O=C(O)c1ccoc1	122 °C		
C1CCOC1	-108 °C	65 °C	log10 Henry constant (atm·m³/mol): -4.15; log10 Koa: 2.86; log10 vapour pressure (mmHg): 2.21; ready biodegradability: readily biodegradable
CCCCCCC=NO	57.5 °C	195 °C	
CC1=C(C)CCC1	-90.4 °C	106 °C	

SMILES	melting point	boiling point	further results
CN(C)c1ccc(N=Nc2ccccc2)cc1	117 °C		log10 Koc (L/kg): 3.87; log10 vapour pressure (mmHg): -7.15
COc1ccc(C=Cc2ccc(OC)cc2)cc1	214 °C		
COC(=O)c1ccc(C(=O)OC)cc1	141 °C	288 °C	log10 vapour pressure (mmHg): -2; ready biodegradability: readily biodegradable
Oc1ccc2ccccc2c1/N=N/c1ccc(/N=N\c2ccccc2)cc1	195 °C		
OCCn1ccnc1	39 °C		
Cc1cccc(C)c1NC(=O)c1ccc[nH]c1=O	266 °C		
CCC1(CC)C(=O)NC(=S)NC1=O	180 °C		
O=C(Nc1ccccc1)NC1CC1			log10 Koc (L/kg): 1.74
O=[N+]([O-])c1ccc(Oc2ccccc2)cc1	61 °C	320 °C	
CC(F)=C(Cl)Cl		78 °C	
C1CO1	-112 °C	10.6 °C	log10 Henry constant (atm·m³/mol): -3.83; log10 vapour pressure (mmHg): 3.12; ready biodegradability: readily biodegradable
CCCCCCCCCCCCCCCCCCCCCCCCCCCCO	83.3 °C		ready biodegradability: readily biodegradable
CC(=O)OCCOC(C)=O	-31 °C	190 °C	log10 vapour pressure (mmHg): -1.11; ready biodegradability: readily biodegradable
Clc1cccc(Cl)c1Oc1ccccc1			log10 vapour pressure (mmHg): -2.89
O=C(Cl)c1ccccc1Cl	-4 °C	238 °C	
Cc1ccc(O)c(N=Nc2ccccc2)c1	108 °C		
CCN1C(=O)NC(c2ccccc2)C1=O (configuration not stated)	94 °C		
O=Cc1ccccc1Br	21.5 °C	230 °C	
CCC(C)C(C)O (configuration not stated)		134 °C	
O=C(O)c1ccnc(C(=O)O)c1C(=O)O	250 °C		
COc1cc(C(=O)O)cc(OC)c1OC	172 °C		
[O-][n+]1cccc(O)c1	191 °C		
C1CCCCCCCCCCCCCC1	61.3 °C		
CC(=O)Nc1ccc([N+](=O)[O-])cc1	216 °C		
CC(NNC(=O)c1ccccc1)c1ccccc1 (configuration not stated)	93.5 °C		
CNc1ccc([N+](=O)[O-])cc1	152 °C		
